{"source": "patent US20200000091A1", "about": "“Microbe Proliferation Inhibitor, Method for Inhibiting Proliferation of Microbes, UV Resistance-Improving Agent, Method for Improving UV Resistance, Artificial Protein Formation Body and method for Manufacturing Same, Artificial Protein Solution, and Coloring Agent” (Keio University, priority 2017, published 2020)", "test_system": "Escherichia coli wild strain (W3110)", "assay": "Growth of Escherichia coli in M9 medium, absorbance (OD600) measured every hour", "format": "cell-based", "settings": "1 mM xanthurenic acid in M9 medium (Tris-HCl buffer pH 8), compared with Comparative Example 1 (no xanthurenic acid), FIG. 1", "procedure": "An Escherichia coli wild strain (W3110) was cultured in M9 medium (7 mg/ml K2HPO4, 3 mg/ml KH2PO4, 0.5 mg/ml NaCl, 1 mg/ml NH4Cl, 1 mg/ml glucose, 1 mM MgSO4.7H2O, 14.7 μg/ml CaCl2)) containing 10 μg/ml thiamine. In preparing the medium, a Tris-HCl buffer solution (pH 8) was used instead of water in consideration of the solubility of xanthurenic acid. The obtained overnight cultures were diluted into 0.8% with 20 ml of a fresh medium containing 1 mM xanthurenic acid (Wako Pure Chemical Industries, Ltd.) to obtain a sample solution. Absorbance (OD600) was measured as to this sample solution every hour by using Nano Photometer (Implen GmbH).\nThe preparation and measurement of a sample solution were performed in the same way as in Example 1 except that the overnight cultures were diluted with a fresh medium containing no xanthurenic acid."}
{"smiles": "O=C(O)c1cc(O)c2cccc(O)c2n1", "note": "[Example 1, xanthurenic acid]", "values": [{"measurement": "absorbance (OD600); proliferation of Escherichia coli", "value": "proliferation of Escherichia coli was inhibited"}]}
